Among the data in PMC4757794 (2016) are Kd and binding values, retold here.

Molecules are shown by their SMILES.

The test system of assay [1] is CC mismatched DNA (ITC) (DNA, mismatch bulge abasic) GCGCCGTCGTCCATGTG/CACATGCACGACGGCGC
In words: ITC. Background: ITC needs no label: the signal is the heat of the interaction.

Assay [2] deals with DNA without an abasic site (melting temperature experiment) (DNA, duplex) GACCAGCTTATCATCCCTAGATAAGCG/CGCTTATCTAGGGATGATAAGCTGGTC
In words: melting temperature. As to conditions: Tm stated not affected.

Assay [3] has as its system hairpin matched DNA (DNA, hairpin) GGCAGGCATGGCTTTTTGCCATGCCTGCC
The experiment in a line: emission titration.

For assay [4], the system named is matched DNA (ITC) (DNA, duplex) GCGCCGTCGTCCATGTG/CACATGGACGACGGCGC
In words: ITC.

Assay [5] relates to hairpin DNA oligomer with a CC mismatch (DNA, mismatch bulge abasic) GGCAGGCATGGCTTTTTGCCATCCCTGCC
In words: emission titration.

Assay [6] relates to 27-mer dsDNA with CC mismatch (DNA, mismatch bulge abasic) GACCAGCTTATCATCCCTAGATAAGCG/CGCTTATCTAGGCATGATAAGCTGGTC
The experiment in a line: emission titration. As to conditions: 50 mM NaCl; 2 mM Tris, pH 7.5; 5 μM 1c; comparison DNA of abasic titration.

In assay [7] the test system is 27-mer abasic dsDNA AP_A (DNA, mismatch bulge abasic, abasic at 13 of strand 2) GACCAGCTTATCATACCTAGATAAGCG/CGCTTATCTAGGNATGATAAGCTGGTC
In words: emission titration. To be noted: 50 mM NaCl; 2 mM Tris, pH 7.5; 5 μM 1c; 14.8-fold emission increase.

Assay [8] has as its system 27-mer abasic dsDNA AP_C (DNA, mismatch bulge abasic, abasic at 13 of strand 2) GACCAGCTTATCATCCCTAGATAAGCG/CGCTTATCTAGGNATGATAAGCTGGTC
In words: emission titration. To be noted: 50 mM NaCl; 2 mM Tris, pH 7.5; 5 μM 1c; 32.2-fold emission increase.

In assay [9] the test system is 27-mer abasic dsDNA AP_G (DNA, mismatch bulge abasic, abasic at 13 of strand 2) GACCAGCTTATCATGCCTAGATAAGCG/CGCTTATCTAGGNATGATAAGCTGGTC
In words: emission titration. To be noted: 50 mM NaCl; 2 mM Tris, pH 7.5; 5 μM 1c; 14.4-fold emission increase.

The test system of assay [10] is normal (matched) 27-mer dsDNA (DNA, duplex) GACCAGCTTATCATCCCTAGATAAGCG/CGCTTATCTAGGGATGATAAGCTGGTC
In words: emission titration. To be noted: 50 mM NaCl; 2 mM Tris, pH 7.5; 5 μM 1c; 4.7-fold emission increase.

The subject of assay [11] is CC mismatched 17-mer dsDNA (DNA, mismatch bulge abasic) GCGCCGTCGTCCATGTG/CACATGCACGACGGCGC
In words: emission titration. To be noted: 50 mM NaCl; 2 mM Tris, pH 7.5; 27.5-fold emission increase.

The subject of assay [12] is matched 17-mer dsDNA (DNA, duplex) GCGCCGTCGTCCATGTG/CACATGGACGACGGCGC
The experiment in a line: emission titration. To be noted: 50 mM NaCl; 2 mM Tris, pH 7.5; 2.8-fold emission increase.

Assay [13] has as its system 27-mer abasic dsDNA AP_T (DNA, mismatch bulge abasic, abasic at 13 of strand 2) GACCAGCTTATCATTCCTAGATAAGCG/CGCTTATCTAGGNATGATAAGCTGGTC
In words: emission titration. As to conditions: 50 mM NaCl; 2 mM Tris, pH 7.5; 5 μM 1c; 21.1-fold emission increase.

Assay [14] has as its system self-complementary CC mismatched DNA 5′-C1G2G3A4C5T6C7C8G9-3′ (DNA, mismatch bulge abasic) CGGACTCCG
In words: 1H NMR, NOESY, TOCSY titration. To be noted: 20 mM NaCl, 50 mM sodium phosphate; D2O, pH 6.1, 10 °C; shifts at A4 and C5, mismatched site.

The mark [15] stands for this setting: 50 mM NaCl, 2 mM Tris, pH 7.5, 0.1 mM complex titrated with 0.75 mM DNA.

One may read the Kd as the free concentration of one partner at which half of the binding sites on the other are occupied at equilibrium, for simple one-to-one binding. Read a low Kd as higher affinity.

In turn, `C1CCC(P(CP(C2CCCCC2)C2CCCCC2)C2CCCCC2)CC1.[Pt+2].[Pt+2].[c-]1ccccc1-c1cccc(-c2ccccn2)n1.[c-]1ccccc1-c1cccc(-c2ccccn2)n1` gave a Kd in assay [1] (setting [15]) of 7.0 ± 2.1 µM. Also, the binding result in [2] was “no”; in [3] (50 mM NaCl, 2 mM Tris, pH 7.5, 5 μM 2, 8.2-fold emission increase at 0.5 equivalents), “weak”; in assay [4] (50 mM NaCl, 2 mM Tris, pH 7.5, 0.1 mM complex titrated with 0.75 mM DNA, Kd stated negligible), “no”; in assay [5] (50 mM NaCl, 2 mM Tris, pH 7.5, 5 μM 2, 50-fold emission increase at 0.5 equivalents), “yes”.

`CC[n+]1c(-c2ccccc2)c2cc(N)ccc2c2ccc(N)cc21`: the Kd in [1] (Na+ 50 mM (Tris 2 mM buffer)) amounted to 1.32 ± 0.24 µM; in [4] (Na+ 50 mM (Tris 2 mM buffer)), 1.60 ± 0.28 µM. Also, the binding entry in assay [3] (14.1-fold emission increase) and in [5] (12.7-fold emission increase) was “yes” each time.

As to `CN1[C]N(C)C=C1.[Pt+2].[c-]1ccccc1-c1cccc(-c2ccccn2)n1`, the Kd in assay [1] (setting [15]) amounted to 66.2 ± 15.7 µM; in [4] (setting [15]), 56.4 ± 13.6 µM. The binding result in [3] (7.1-fold emission increase) and in assay [5] (8.5-fold emission increase) was “yes” in each case.

On to `CCCCN1[C]N(Cc2ccccc2)C=C1.[Pt+2].[c-]1ccccc1-c1cccc(-c2ccccn2)n1`, for which the binding result in [6] is given as “yes”; in [7] it was “yes”; in assay [8], “yes”; in assay [9] it was “yes”; in [10], “weak”; in assay [11] it was “yes”. Also, the binding result in assay [12] is reported as “weak”; in assay [3] (50 mM NaCl, 2 mM Tris, pH 7.5, 5 μM 1c, 2.6-fold emission increase at 1 equivalent) it was “weak”; in assay [13], “yes”; in assay [5] (50 mM NaCl, 2 mM Tris, pH 7.5, 5 μM 1c, 26.4-fold emission increase at 1 equivalent) it was “yes”; in assay [14] it was “yes”. The compound also displayed a Kd in assay [1] (setting [15]) of 51.5 ± 8.0 µM.
